# pIC50: −log10 of the molar value.
# Experiments:
# [1] = system: MCF7; test: cells; details: Homo sapiens, MCF7, 72 h
# Description: Anticancer activity against human MCF7 cells assessed as inhibition of cell growth incubated for 3 days by MTT assay
# [2] = system: HepG2; test: cells; details: Homo sapiens, HepG2, 72 h
# Description: Anticancer activity against human HepG2 cells assessed as inhibition of cell growth incubated for 3 days by MTT assay
# [3] = system: MDA-MB-231; test: Anticancer activity against human MDA-MB-231 cells assessed as inhibition of cell growth incubated for 3 days by MTT assay; assay type: functional, cell-based; details: MDA-MB-231, 72 h
# [4] = Cytotoxicity against human WI-38 cells assessed as inhibition of cell growth incubated for 3 days by MTT assay; assay type: toxicity, cell-based
# [5] = molecular target: Vascular endothelial growth factor receptor 2 (Homo sapiens, UniProt P35968); test: Inhibition of VEGFR2 (unknown origin)
# [6] = molecular target: Epidermal growth factor receptor (Homo sapiens, UniProt P00533); test: Inhibition of EGFR (unknown origin)
# Sequence of Epidermal growth factor receptor (P00533 whole entry): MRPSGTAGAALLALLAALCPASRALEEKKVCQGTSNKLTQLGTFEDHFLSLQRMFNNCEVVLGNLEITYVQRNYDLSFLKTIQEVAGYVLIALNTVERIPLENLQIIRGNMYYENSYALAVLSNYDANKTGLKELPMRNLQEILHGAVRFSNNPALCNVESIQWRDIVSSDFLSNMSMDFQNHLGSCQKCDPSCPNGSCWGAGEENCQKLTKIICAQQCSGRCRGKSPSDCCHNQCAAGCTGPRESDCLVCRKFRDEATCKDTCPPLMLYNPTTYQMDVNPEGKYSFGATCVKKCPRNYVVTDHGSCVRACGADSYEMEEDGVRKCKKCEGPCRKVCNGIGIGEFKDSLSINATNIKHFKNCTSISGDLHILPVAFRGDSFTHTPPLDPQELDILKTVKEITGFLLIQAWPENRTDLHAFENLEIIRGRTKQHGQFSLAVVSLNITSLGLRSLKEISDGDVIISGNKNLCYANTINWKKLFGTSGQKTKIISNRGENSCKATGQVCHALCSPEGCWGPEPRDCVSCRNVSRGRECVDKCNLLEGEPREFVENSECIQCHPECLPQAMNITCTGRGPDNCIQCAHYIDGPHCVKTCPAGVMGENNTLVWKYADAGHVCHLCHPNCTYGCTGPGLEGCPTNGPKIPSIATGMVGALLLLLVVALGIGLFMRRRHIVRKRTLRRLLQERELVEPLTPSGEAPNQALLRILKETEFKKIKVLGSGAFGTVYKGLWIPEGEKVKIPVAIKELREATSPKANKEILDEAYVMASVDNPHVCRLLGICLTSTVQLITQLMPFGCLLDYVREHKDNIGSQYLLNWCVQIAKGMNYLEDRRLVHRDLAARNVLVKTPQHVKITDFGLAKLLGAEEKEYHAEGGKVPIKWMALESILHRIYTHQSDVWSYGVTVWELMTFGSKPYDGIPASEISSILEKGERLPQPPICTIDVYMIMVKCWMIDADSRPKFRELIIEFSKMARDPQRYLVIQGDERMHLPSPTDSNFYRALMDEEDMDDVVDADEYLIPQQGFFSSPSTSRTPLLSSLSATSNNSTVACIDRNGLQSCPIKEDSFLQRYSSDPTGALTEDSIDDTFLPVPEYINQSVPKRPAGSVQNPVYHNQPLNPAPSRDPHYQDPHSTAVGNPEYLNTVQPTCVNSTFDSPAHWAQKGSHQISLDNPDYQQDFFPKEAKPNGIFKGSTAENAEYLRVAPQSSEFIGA
# Sequence of Vascular endothelial growth factor receptor 2 (P35968 whole entry): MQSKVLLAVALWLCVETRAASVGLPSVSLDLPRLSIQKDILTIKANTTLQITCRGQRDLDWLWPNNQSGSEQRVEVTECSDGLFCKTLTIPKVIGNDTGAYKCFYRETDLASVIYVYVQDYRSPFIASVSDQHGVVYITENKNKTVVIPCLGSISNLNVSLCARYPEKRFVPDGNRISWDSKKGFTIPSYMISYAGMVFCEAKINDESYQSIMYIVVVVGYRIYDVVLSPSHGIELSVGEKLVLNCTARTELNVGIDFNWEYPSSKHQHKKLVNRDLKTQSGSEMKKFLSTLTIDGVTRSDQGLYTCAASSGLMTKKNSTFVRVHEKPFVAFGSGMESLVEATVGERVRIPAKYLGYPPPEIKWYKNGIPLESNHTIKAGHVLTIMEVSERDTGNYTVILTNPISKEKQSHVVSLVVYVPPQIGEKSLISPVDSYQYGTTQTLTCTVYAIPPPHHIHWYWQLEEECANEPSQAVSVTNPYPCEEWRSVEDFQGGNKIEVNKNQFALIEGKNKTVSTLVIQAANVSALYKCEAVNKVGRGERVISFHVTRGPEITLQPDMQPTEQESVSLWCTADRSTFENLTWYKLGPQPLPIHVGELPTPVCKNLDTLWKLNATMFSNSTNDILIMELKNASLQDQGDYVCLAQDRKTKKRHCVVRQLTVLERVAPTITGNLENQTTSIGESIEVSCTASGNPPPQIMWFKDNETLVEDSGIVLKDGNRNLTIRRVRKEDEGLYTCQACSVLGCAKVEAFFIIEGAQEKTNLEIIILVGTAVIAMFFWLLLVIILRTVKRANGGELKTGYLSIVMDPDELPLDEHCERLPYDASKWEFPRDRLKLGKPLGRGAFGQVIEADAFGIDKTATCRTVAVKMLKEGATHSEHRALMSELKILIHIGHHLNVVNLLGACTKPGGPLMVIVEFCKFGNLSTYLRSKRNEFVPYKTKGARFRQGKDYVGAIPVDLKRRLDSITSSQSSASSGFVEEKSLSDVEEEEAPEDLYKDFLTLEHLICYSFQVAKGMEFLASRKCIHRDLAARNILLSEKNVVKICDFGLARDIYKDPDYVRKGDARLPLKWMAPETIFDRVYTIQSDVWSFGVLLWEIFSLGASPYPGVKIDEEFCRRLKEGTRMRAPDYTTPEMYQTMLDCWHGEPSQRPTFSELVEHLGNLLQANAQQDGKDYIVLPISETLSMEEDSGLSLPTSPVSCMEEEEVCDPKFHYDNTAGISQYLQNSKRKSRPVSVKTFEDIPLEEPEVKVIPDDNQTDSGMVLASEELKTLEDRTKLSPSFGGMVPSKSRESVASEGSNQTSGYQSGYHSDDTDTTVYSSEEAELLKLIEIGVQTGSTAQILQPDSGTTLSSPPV
Structure (SMILES),pIC50 [1],pIC50 [2],pIC50 [3],IC50 at 3 days [4] [nM],pIC50 [5],pIC50 [6]
COc1cc(-c2nc3ccccc3s2)ccc1OCC(=O)NNC(=O)CN[C@@H](CCSC)C(=O)O,5.71,5.42,,,,
COc1cc(-c2nc3ccccc3s2)ccc1OCC(=O)NNC(=O)CN[C@@H](Cc1c[nH]c2ccccc12)C(=O)O,6.08,5.59,4.98,60800,6.79,6.68
COc1cc(-c2nc3ccccc3s2)ccc1OCC(=O)NNC(=O)CNC(=N)NCCC[C@H](N[N+](=O)[O-])C(=O)O,5.71,5.46,,,,
COc1cc(-c2nc3ccccc3s2)ccc1OCC(=O)NNC(O)CN(C)CC(=O)O (stereo not drawn),5.71,5.52,,,,
COc1cc(-c2nc3ccccc3s2)ccc1OCC(=O)NNC(=O)CCl,6.11,5.54,,,,
CCOC(=O)[C@H](Cc1c[nH]cn1)NCC(=O)NNC(=O)COc1ccc(-c2nc3ccccc3s2)cc1OC,6.13,5.57,5.25,89400,6.82,6.80
CCOC(=O)[C@H](CS(=O)(=O)O)NCC(=O)NNC(=O)COc1ccc(-c2nc3ccccc3s2)cc1OC,5.70,5.47,,,,
COc1cc(-c2nc3ccccc3s2)ccc1OCC(=O)NNC(=O)CN1CCC[C@H]1C(=O)O,6.08,5.58,5.05,68600,6.73,6.47
CCOC(=O)CN(C)CC(=O)NNC(=O)COc1ccc(-c2nc3ccccc3s2)cc1OC,5.70,5.50,,,,
CCOC(=O)[C@H](CS)N(CC(=O)NNC(=O)COc1ccc(-c2nc3ccccc3s2)cc1OC)C(C)=O,5.72,5.52,,,,
CC[C@H](C)[C@H](NCC(=O)NNC(=O)COc1ccc(-c2nc3ccccc3s2)cc1OC)C(=O)O,5.77,5.45,,,,
COc1cc(-c2nc3ccccc3s2)ccc1OCC(=O)NNC(=O)CN[C@@H](CS)C(=O)O,5.91,5.51,,,,
CCOC(=O)[C@@H]1CCCN1CC(=O)NNC(=O)COc1ccc(-c2nc3ccccc3s2)cc1OC,6.11,5.55,5.14,75100,6.79,6.96
COc1cc(-c2nc3ccccc3s2)ccc1OCC(=O)NNC(=O)CN[C@@H](Cc1c[nH]cn1)C(=O)O,6.05,5.55,4.96,49500,6.77,6.52
CCOC(=O)[C@H](CCCNC(=N)NCC(=O)NNC(=O)COc1ccc(-c2nc3ccccc3s2)cc1OC)N[N+](=O)[O-],5.71,5.43,,,,
CC[C@H](C)[C@@H](NCC(=O)NNC(=O)COc1ccc(-c2nc3ccccc3s2)cc1OC)C(=O)O,5.75,5.40,,,,
COc1cc(-c2nc3ccccc3s2)ccc1OCC(=O)NNC(=O)CN[C@@H](CS(=O)(=O)O)C(=O)O,5.73,5.43,,,,
CCOC(=O)[C@H](NCC(=O)NNC(=O)COc1ccc(-c2nc3ccccc3s2)cc1OC)[C@@H](C)CC,5.54,5.40,,,,
COc1cc(-c2nc3ccccc3s2)ccc1OCC(=O)NNC(=O)CN(C(C)=O)[C@@H](CS)C(=O)O,5.76,5.47,,,,
CCOC(=O)[C@H](Cc1c[nH]c2ccccc12)NCC(=O)NNC(=O)COc1ccc(-c2nc3ccccc3s2)cc1OC,6.14,5.60,5.26,92700,6.75,6.94
CCOC(=O)[C@@H](NCC(=O)NNC(=O)COc1ccc(-c2nc3ccccc3s2)cc1OC)[C@@H](C)CC,5.71,5.46,,,,
CCOC(=O)[C@H](CS)NCC(=O)NNC(=O)COc1ccc(-c2nc3ccccc3s2)cc1OC,5.54,5.42,,,,
CCOC(=O)[C@H](CCSC)NCC(=O)NNC(=O)COc1ccc(-c2nc3ccccc3s2)cc1OC,5.75,5.48,,,,
COc1cccc2c1C(=O)c1c(O)c3c(c(O)c1C2=O)C[C@@](O)(C(=O)CO)C[C@@H]3O[C@H]1C[C@H](N)[C@H](O)[C@H](C)O1 [DOXORUBICIN],,5.56,5.13,79700,,

# Reference: ChEMBL document CHEMBL5131433, “Novel benzothiazole-based dual VEGFR-2/EGFR inhibitors targeting breast and liver cancers: Synthesis, cytotoxic activity, QSAR and molecular docking studies” (Bioorg Med Chem Lett, 2022)
